Measurements as given in patent US10550117B2, “2-azabicyclo[3.1.0]hexan-3-one derivatives and methods of use” (Genentech, Inc., priority 2016, dated 2020).
Each block holds one compound with its values, some of them ahead of it.

Tests used:
[1] = target: nuclear factor-kappa B (NF-kB)-inducing kinase (NIK) (Homo sapiens (Human), UniProt Q99558); assay: NIK enzyme inhibition assay (Transcreener ADP fluorescence polarization); assay type: biochemical; conditions: for NIK enzyme inhibition, potency in words relative to the other stereoisomers: stereoisomers separated by chiral SFC, qualitative; for Ki: purified NIK 0.5 nM, 10 μM ATP, Morrison equation, read-out: NIK ADP-FP Ki
nuclear factor-kappa B (NF-kB)-inducing kinase (NIK), sequence (Q99558 whole entry): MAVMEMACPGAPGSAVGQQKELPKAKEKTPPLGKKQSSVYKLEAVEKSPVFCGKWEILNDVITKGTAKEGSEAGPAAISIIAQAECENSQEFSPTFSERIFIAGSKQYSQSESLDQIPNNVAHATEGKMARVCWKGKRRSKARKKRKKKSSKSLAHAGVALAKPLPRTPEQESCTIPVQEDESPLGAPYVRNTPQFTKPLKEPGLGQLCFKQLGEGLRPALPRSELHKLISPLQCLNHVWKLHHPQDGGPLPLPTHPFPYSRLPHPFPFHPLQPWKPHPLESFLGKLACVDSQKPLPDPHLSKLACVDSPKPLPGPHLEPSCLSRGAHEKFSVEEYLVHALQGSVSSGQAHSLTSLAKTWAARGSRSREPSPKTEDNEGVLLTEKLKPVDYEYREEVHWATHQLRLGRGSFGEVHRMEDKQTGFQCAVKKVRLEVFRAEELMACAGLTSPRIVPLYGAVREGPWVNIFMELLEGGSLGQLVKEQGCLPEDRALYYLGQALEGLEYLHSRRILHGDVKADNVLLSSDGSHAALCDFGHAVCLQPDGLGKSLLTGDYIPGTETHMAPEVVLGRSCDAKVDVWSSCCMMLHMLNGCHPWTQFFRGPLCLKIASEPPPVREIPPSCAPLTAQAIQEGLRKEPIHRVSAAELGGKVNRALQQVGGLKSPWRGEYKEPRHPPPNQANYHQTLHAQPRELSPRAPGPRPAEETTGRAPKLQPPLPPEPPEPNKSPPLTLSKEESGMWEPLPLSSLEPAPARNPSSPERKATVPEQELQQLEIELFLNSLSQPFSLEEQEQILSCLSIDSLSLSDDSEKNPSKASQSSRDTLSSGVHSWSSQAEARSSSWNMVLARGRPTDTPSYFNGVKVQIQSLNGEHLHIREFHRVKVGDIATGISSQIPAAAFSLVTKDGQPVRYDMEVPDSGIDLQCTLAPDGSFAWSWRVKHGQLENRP
Description: The ability of the nuclear factor-kappa B (NF-kB)-inducing kinase (NIK) to catalyze the hydrolysis of adenosine-5′-triphosphate (ATP) was monitored using the Transcreener ADP (adenosine-5′-diphosphate) assay (BellBrook Labs). […] Reactions were quenched by the addition of 20 mM 2,2′,2″,2′″-(ethane-1,2-diyldinitrilo)tetraacetic acid and 0.01% Brij 35. The tracer bound to the antibody was displaced by the ADP generated during the NIK reaction, which causes a decrease in fluorescence polarization that was measured by laser excitation at 633 nm with a Fluorescence Correlation Spectroscopy Plus reader (Evotec AG). Equilibrium dissociation constant (Ki) values for NIK inhibitors are calculated from plots of activity vs. inhibitor concentration using Morrison's quadratic equation that accounts for the potential of tight binding, and by also applying the conversion factor that accounted for competitive inhibition and the concentration of substrate used in the assay relative to its Michaelis constant (Km).

[2] = test system: p52 (NF-kB2) nuclear translocation in HeLa cells; assay: p52 HeLa nuclear translocation assay (anti-lymphotoxin beta receptor antibody stimulated); assay type: cell-based; conditions: Homo sapiens, 100 ng/mL anti-lymphotoxin beta receptor antibody
Description: (§1) (3) A third set of cell assays are used to define the selectivity of NIK inhibitors toward inhibition of classical vs. non-classical NF-kB signaling and rely on quantification of the nuclear translocation of p52 (NF-kB2) and REL-A (p65) using high content cellular imaging. For the p52 (non-classical NF-kB signaling) nuclear translocation assay, HeLa cells are treated with different concentrations of compounds (0.2% DMSO final) in medium containing 10% fetal bovine serum and then stimulated with 100 ng/mL of an anti-lymphotoxin beta receptor antibody (R&D Systems) for 5 hours. In the REL-A nuclear translocation assay, HeLa cells are incubated with compounds (0.2% DMSO final) for 4.5 hours in medium containing 10% fetal bovine serum before stimulating them with 10 ng/mL tumor necrosis factor (TNF)-α (R&D Systems) for 30 minutes. Cells are fixed with 4% paraformaldehyde, permeabilized by adding 0.1% Triton X-100 in phosphate buffered saline, and then are incubated with either 2 μg/mL anti-p52 antibody (Millipore) or 400 ng/mL anti-REL-A (p65) antibody (Santa Cruz Biotechnology). Finally, the cells are incubated with an Alexa488-labeled secondary antibody (Invitrogen) and DRAQ5 DNA stain (Biostatus). Imaging is carried out using an Opera reader (Perkin Elmer) and data are analyzed with the aid of Acapella software (Perkin Elmer). The p52 or REL-A translocation into the nucleus is quantified by the ratio of the nuclear to cytoplasmic signal intensity. […] The test compounds have the corresponding inhibitory values (IC50) for NIK REL-A (p65) and p52 Translocation Assays as set forth in Table B2.

[3] = test system: REL-A (p65) nuclear translocation in HeLa cells; assay: REL-A HeLa nuclear translocation assay (TNF-α stimulated, high content imaging); assay type: cell-based; conditions: Homo sapiens, 10 ng/mL TNF-α
Description: as §1

Hepatocyte stability = assay type: in vitro ADME; conditions: human hepatocytes
Description: General. Metabolic stability assays in hepatocytes are conducted using cryopreserved pooled female CD-1 mouse, male Sprague-Dawley rat, male beagle dog, male cynomolgus monkey, and mixed male and female human hepatocytes (CellzDirect). Vials of hepatocytes are thawed rapidly in a water bath set at 37° C. and then are diluted with Dulbecco's modified Eagle's medium (DMEM), pH 7.4. Cells are isolated by centrifugation, pooled, and resuspended in DMEM at 1.0 million viable cells/ml. Membrane integrity of the cells is assessed by trypan blue exclusion. The test compound is dissolved in dimethyl sulfoxide at a final concentration of 10 mM. This test compound stock is diluted further to 2 μM in DMEM (125 μl) before the addition of an equal volume of the 10^6 cells/ml cell suspension. The test compound (final incubation concentration of 1.0 μM with 0.1% dimethyl sulfoxide) and cells (final concentration of 0.5×10^6 cells/ml) are incubated at 37° C. in a 95% air/5% CO2 atmosphere for 3 h. Aliquots (50 μl) are removed at 0, 1, 2, and 3 hours and added to termination mixtures (100 μl) containing acetonitrile and an internal standard. The samples are then centrifuged for 10 min at 2000 g. The supernatant (90 μl) is removed, combined with 180 μl of water, and analyzed by LC-MS/MS.
Metabolic stability of the test compounds were evaluated also in human hepatocytes, following protocols described in Hallifax, et al. Drug Metabol. Disposition, 2005, 33:1852-1858.

[4] = Liver microsome stability; assay type: in vitro ADME; conditions: for HLM CL (human liver microsome clearance): human liver microsomes; for stability in human liver microsomes versus the corresponding pyrrolidinone comparator compound: qualitative comparison
Description: Metabolic stability assays in liver microsomes are conducted with pooled female CD-1 mouse, male Sprague-Dawley rat, male beagle dog, male cynomolgus monkey, and mixed male and female human liver microsomal incubations. The general assay conditions are as follows. Incubation mixtures consisted of liver microsomes (0.5 mg of microsomal protein/ml) and the test compound (1.0 μM) with or without NADPH (1.0 mM) in the potassium phosphate buffer (100 mM; pH 7.4) with a final incubation volume of 0.25 ml. Reactions are initiated by the addition of NADPH or buffer and shaken in a water bath open to the air at 37° C. At times 0, 20, 40, and 60 min, aliquots (50 μl) are removed and added to termination mixtures (100 μl) containing acetonitrile and an internal standard. The samples are then centrifuged for 10 min at 2000 g. The supernatant (90 μl) is removed, combined with 180 μl of water, and analyzed by LC-MS/MS.
Metabolic stability of the test compounds were evaluated in human liver microsomes following known protocols described in Halladay, et al. Drug Metabol. Lett. 2007, 1:67-72.

SMILES: COc1ccn2c(C(N)=O)nc(-c3cccc(C#C[C@@]4(O)C(=O)N(C)[C@H]5C[C@H]54)c3)c2c1 [1-(3-(((1 S,4R,5R)-4-hydroxy-2-methyl-3-oxo-2-azabicyclo[3.1.0]hexan-4-yl)ethynyl)phenyl)-7-methoxyimidazo[1,5-a]pyridine-3-carboxamide]
NIK enzyme inhibition, potency in words relative to the other stereoisomers [1]: second most potent NIK enzyme inhibitor among the 4 stereoisomers

SMILES: CN1C(=O)C(O)(C#Cc2cccc(-c3nc(C(N)=O)c(N)s3)c2)C2CC21 (single isomer, unassigned) [5-amino-2-(3-((4-hydroxy-2-methyl-3-oxo-2-azabicyclo[3.1.0]hexan-4-yl)ethynyl)phenyl)thiazole-4-carboxamide]
NIK enzyme inhibition, potency in words relative to the other stereoisomers [1]: less potent NIK enzyme inhibitor than Compound 6

NIK enzyme inhibition, potency in words relative to the other stereoisomers [1]: no measurable inhibition
SMILES: COc1ccn2c(C(N)=O)nc(-c3cccc(C#C[C@]4(O)C(=O)N(C)[C@H]5C[C@H]54)c3)c2c1 [1-(3-(((1S,4S,5R)-4-hydroxy-2-methyl-3-oxo-2-azabicyclo[3.1.0]hexan-4-yl)ethynyl)phenyl)-7-methoxyimidazo[1,5-a]pyridine-3-carboxamide]

SMILES: CN1C(=O)[C@](O)(C#Cc2cccc(-c3nc(C(N)=O)c4ccccn34)c2)[C@@H]2C[C@@H]21 [3-(3-(((1 S,4R,5R)-4-hydroxy-2-methyl-3-oxo-2-azabicyclo[3.1.0]hexan-4-yl)ethynyl)phenyl)imidazo[1,5-a]pyridine-1-carboxamide]
NIK enzyme inhibition, potency in words relative to the other stereoisomers [1]: second most potent NIK enzyme inhibitor among the 4 stereoisomers

NIK enzyme inhibition, potency in words relative to the other stereoisomers [1]: no measurable inhibition
SMILES: CN1C(=O)[C@@](O)(C#Cc2cccc(-n3nc(C(N)=O)c4cccnc43)c2)[C@@H]2C[C@@H]21 [1-(3-(((1 S,4S,5R)-4-hydroxy-2-methyl-3-oxo-2-azabicyclo[3.1.0]hexan-4-yl)ethynyl)phenyl)-1H-pyrazolo[3,4-b]pyridine-3-carboxamide]

SMILES: CN1CC[C@@](O)(C#Cc2cccc(-c3nc(C(N)=O)c4ccccn34)c2)C1=O [Compound C-5]
IC50 [2]: 240 nM
IC50 [3]: > 20000 nM

SMILES: CN1CC[C@@](O)(C#Cc2cccc(-c3nc(C(N)=O)c(N)s3)c2)C1=O [Compound C-6, reference compound]
IC50 [2]: 79.1 nM
IC50 [3]: > 5000 nM
Hep CL (human hepatocyte clearance) (Hepatocyte stability): 1.1 mL/min/kg
Ki [1]: 0.13 nM
HLM CL (human liver microsome clearance) [4]: 5.1 mL/min/kg

SMILES: CN1CC[C@@](O)(C#Cc2cccc(-n3nc(C(N)=O)c4cccnc43)c2)C1=O [Compound C-1]
IC50 [2]: 79.5 nM
IC50 [3]: > 20000 nM

SMILES: COc1ccn2c(C(N)=O)nc(-c3cccc(C#C[C@]4(O)C(=O)N(C)[C@@H]5C[C@@H]54)c3)c2c1 [1-(3-(((1R,4S,5S)-4-hydroxy-2-methyl-3-oxo-2-azabicyclo[3.1.0]hexan-4-yl)ethynyl)phenyl)-7-methoxyimidazo[1,5-a]pyridine-3-carboxamide]
NIK enzyme inhibition, potency in words relative to the other stereoisomers [1]: third most potent NIK enzyme inhibitor among the 4 stereoisomers

NIK enzyme inhibition, potency in words relative to the other stereoisomers [1]: no measurable inhibition
SMILES: CN1C(=O)[C@@](O)(C#Cc2cccc(-c3nc(C(N)=O)n4ccccc34)c2)[C@@H]2C[C@@H]21 [1-(3-(((1 S,4S,5R)-4-hydroxy-2-methyl-3-oxo-2-azabicyclo[3.1.0]hexan-4-yl)ethynyl)phenyl)imidazo[1,5-a]pyridine-3-carboxamide]

SMILES: CN1C(=O)[C@@](O)(C#Cc2cccc(-c3nc(C(N)=O)c4ccccn34)c2)[C@@H]2C[C@@H]21 [3-(3-(((1S,4S,5R)-4-hydroxy-2-methyl-3-oxo-2-azabicyclo[3.1.0]hexan-4-yl)ethynyl)phenyl)imidazo[1,5-a]pyridine-1-carboxamide]
NIK enzyme inhibition, potency in words relative to the other stereoisomers [1]: third most potent NIK enzyme inhibitor among the 4 stereoisomers

SMILES: CN1C(=O)[C@@](O)(C#Cc2cccc(-c3nc(C(N)=O)n4ccccc34)c2)[C@H]2C[C@H]21 [1-(3-(((1R,4S,5S)-4-hydroxy-2-methyl-3-oxo-2-azabicyclo[3.1.0]hexan-4-yl)ethynyl)phenyl)imidazo[1,5-a]pyridine-3-carboxamide]
NIK enzyme inhibition, potency in words relative to the other stereoisomers [1]: third most potent NIK enzyme inhibitor among the 4 stereoisomers

Ki [1]: 0.05 nM
HLM CL (human liver microsome clearance) [4]: 12 mL/min/kg
stability in human liver microsomes versus the corresponding pyrrolidinone comparator compound [4]: better stability
SMILES: COc1ccn2c(C(N)=O)nc(-c3cccc(C#C[C@@]4(O)C(=O)N(C)[C@@H]5C[C@@H]54)c3)c2c1 [Compound 4, 1-(3-(((1R,4R,5S)-4-hydroxy-2-methyl-3-oxo-2-azabicyclo[3.1.0]hexan-4-yl)ethynyl)phenyl)-7-methoxyimidazo[1,5-a]pyridine-3-carboxamide]
NIK enzyme inhibition, potency in words relative to the other stereoisomers [1]: most potent NIK enzyme inhibitor among the 4 stereoisomers

NIK enzyme inhibition, potency in words relative to the other stereoisomers [1]: no measurable inhibition
SMILES: CN1C(=O)[C@@](O)(C#Cc2cccc(-n3nc(C(N)=O)c4cccnc43)c2)[C@H]2C[C@H]21 [1-(3-(((1R,4S,5S)-4-hydroxy-2-methyl-3-oxo-2-azabicyclo[3.1.0]hexan-4-yl)ethynyl)phenyl)-1H-pyrazolo[3,4-b]pyridine-3-carboxamide]

SMILES: CN1C(=O)[C@](O)(C#Cc2cccc(-c3nc(C(N)=O)n4ccccc34)c2)[C@@H]2C[C@@H]21 [1-(3-(((1 S,4R,5R)-4-hydroxy-2-methyl-3-oxo-2-azabicyclo[3.1.0]hexan-4-yl)ethynyl)phenyl)imidazo[1,5-a]pyridine-3-carboxamide]
NIK enzyme inhibition, potency in words relative to the other stereoisomers [1]: second most potent NIK enzyme inhibitor among the 4 stereoisomers

Hep CL (human hepatocyte clearance) (Hepatocyte stability): 2.7 mL/min/kg
Ki [1]: 0.05 nM
HLM CL (human liver microsome clearance) [4]: 1.6 mL/min/kg
stability in human liver microsomes versus the corresponding pyrrolidinone comparator compound [4]: better stability
SMILES: CN1C(=O)[C@](O)(C#Cc2cccc(-c3nc(C(N)=O)c(N)s3)c2)[C@H]2C[C@H]21 [Compound 6, 5-amino-2-(3-(((1R,4R,5S)-4-hydroxy-2-methyl-3-oxo-2-azabicyclo[3.1.0]hexan-4-yl)ethynyl)phenyl)thiazole-4-carboxamide]
NIK enzyme inhibition, potency in words relative to the other stereoisomers [1]: most potent NIK enzyme inhibitor among the 4 stereoisomers
